From patent publication US7101848B2, “Bicyclic oligopeptides” (Boehringer Ingelheim Pharma GmbH & Co. KG, priority 2002, dated 2006)
Values after ≈ are worked out from the molar mass of the structure shown. Where a SMILES comes first, the peptide text is derived from it. Bridges are numbered along the chain shown (N, C = ends).

Experiments:
[1] = Metabolic stability with rat liver microsomes; assay type: in vitro ADME; conditions: Rat Micros; substrate 1 μM, 37° C., up to 45 min
Protocol: (§1) Incubations with preparations of microsomes and cytosol and with plasma under conditions as described below are suitable to investigate the metabolic stability of test compounds (e.g. oxidative metabolism reactions and hydrolysis by esterases). The metabolic stability of the test compounds of examples 1 and 2 is investigated in liver microsomes and cytosol of humans, dogs and rats and in plasma of humans and rats.
(§2) Incubations of test compounds (final concentration: 1 μM) are performed with liver microsomes and cytosol (0.5 mg protein/ml) in Tris buffer (Tris-(hydroxymethyl)-aminomethane) pH 7.4 (0.1 M) containing magnesium chloride (5 mM) at 37° C. for up to 45 min in a total volume of 100 μl. The reaction is initiated by addition of β-nicotinamide adenine dinucleotide phosphate, reduced form (NADPH, 1 mM) and terminated by addition of acetonitrile. After vortex mixing and centrifugation the supernatants are analyzed.
(§3) The samples are analyzed by on-line solid phase extraction and reversed phase HPLC coupled to electro-spray ionization tandem mass spectrometry. The measurements are performed on a triple quad mass spectrometer Quattro II (Micromass, Manchester, UK). The instrument operates at nominal mass resolution in SIR-mode. The analytes are quantified by detection of their quasimolecular ions [M+2H]^2+ m/z 1019 (Example 1) and m/z 1026 (Example 2).

[2] = Metabolic stability with human liver cytosol; assay type: in vitro ADME; conditions: 37° C., up to 45 min
Protocol: as §1, §2, §3

[3] = Metabolic stability with dog liver microsomes; assay type: in vitro ADME; conditions: Dog Micros; substrate 1 μM, 37° C., up to 45 min
Protocol: as §1, §2, §3

[4] = Stability in human plasma; assay type: in vitro ADME; conditions: plasma (heparin), pH 7.4, substrate 1 μM, 37° C., up to 45 min, read-out: Half-lives (t½)
Protocol: as §1
(§4) Incubations of test substrates (final concentration: 1 μM) are performed with human and rat plasma (heparin) containing 0.1 M Tris buffer pH 7.4. The reaction is initiated by addition of the test compound at 37° C. for up to 45 min and terminated by addition of acetonitrile. After vortex mixing and centrifugation the supernatants are analyzed.
as §3

[5] = Metabolic stability with dog liver cytosol; assay type: in vitro ADME; conditions: 37° C., up to 45 min
Protocol: as §1, §2, §3

[6] = Metabolic stability with rat liver cytosol; assay type: in vitro ADME; conditions: 37° C., up to 45 min
Protocol: as §1, §2, §3

[7] = Metabolic stability with human liver microsomes; assay type: in vitro ADME; conditions: Human Micros; substrate 1 μM, 37° C., up to 45 min
Protocol: as §1, §2, §3

Stability in rat plasma = assay type: in vitro ADME; conditions: substrate 1 μM, 37° C., up to 45 min
Protocol: as §1, §4, §3

Solubility in buffer = assay type: physicochemical
Text: and the following solubilities:

[8] = liver cytosol, pH 7.4, substrate 1 μM, read-out: Half-lives (t½)

Half-lives (t½) [1]	Half-lives (t½) ([2]; substrate 1 μM)	Half-lives (t½) [3]	half-life at 1 μM [4]	Half-lives (t½) ([5]; substrate 1 μM)	Half-lives (t½) ([6]; substrate 1 μM)	Half-lives (t½) [7]	Half-lives (t½) (Stability in rat plasma)	solubility (Solubility in buffer; Buffer pH 3.0)	solubility (Solubility in buffer; Buffer pH 7.4)	solubility (Solubility in buffer; Buffer pH 10.0)	half-life at 1 μM [2, 8]	half-life at 1 μM [5, 8]	half-life at 1 μM [6, 8]	SMILES
stable	stable	stable	182 min	stable	stable	stable	stable	3 µg/mL (≈ 1.47 µM)	120 µg/mL (≈ 58.9 µM)	92 µg/mL (≈ 45.2 µM)				CC[C@H](C)[C@@H]1NC(=O)[C@@H]2CC(=O)NCC(=O)N[C@@H](CC(C)C)C(=O)N3CCC[C@H]3C(=O)N[C@@H](Cc3c[nH]c4ccccc34)C(=O)NCC(=O)N[C@@H](CSSC[C@@H](C(=O)O)NC(=O)[C@H](C)NC(=O)[C@H](Cc3c[nH]c4ccccc34)NC(=O)[C@@H]3CCCN3C(=O)[C@H]([C@@H](C)O)NC(=O)[C@H](CC(N)=O)NC(=O)[C@H](Cc3c[nH]c4ccccc34)NC(=O)CNC(=O)[C@@H]3CCCN3C1=O)C(=O)N1CCC[C@H]1C(=O)N[C@@H](CO)C(=O)N2 [Example 1] (GLPWGCPSDIPGWNTPWAC-OH; disulfide 6-19; lactam N-9)
stable		stable	180 min			stable	stable	3 µg/mL (≈ 1.46 µM)	2 µg/mL (≈ 0.975 µM)	4 µg/mL (≈ 1.95 µM)	122 min	140 min	73 min	CC[C@H](C)[C@@H]1NC(=O)[C@@H]2CC(=O)NCC(=O)N[C@@H](CC(C)C)C(=O)N3CCC[C@H]3C(=O)N[C@@H](Cc3c[nH]c4ccccc34)C(=O)NCC(=O)N[C@@H](CSSC[C@@H](C(=O)OC)NC(=O)[C@H](C)NC(=O)[C@H](Cc3c[nH]c4ccccc34)NC(=O)[C@@H]3CCCN3C(=O)[C@H]([C@@H](C)O)NC(=O)[C@H](CC(N)=O)NC(=O)[C@H](Cc3c[nH]c4ccccc34)NC(=O)CNC(=O)[C@@H]3CCCN3C1=O)C(=O)N1CCC[C@H]1C(=O)N[C@@H](CO)C(=O)N2 [Example 2] (GLPWGCPSDIPGWNTPWAC-OMe; disulfide 6-19; lactam N-9)
